Experimental data reported in PubChem BioAssay AID248 (DTP/NCI, 2004).
Values joined by “and” are separate entries in the source; they are usually repeats but may differ in a detail not shown here. Identical values can stand only once. Inconclusive results and toxic doses are left out.

Test system: L1210 leukemia ip in BDF1 mice, survival T/C
Assay: NCI In Vivo Anticancer Drug Screen. Data for tumor model L1210 Leukemia (intraperitoneal) in B6D2F1 (BDF1) mice
Details: endpoint: mean survival time, higher = longer survival
Procedure, shortened: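 Value reflects the ratio of survival in compound-treated mice to survival in vehicle-treated controls, with both groups carrying the same transplanted tumor.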

[1] = dose: 100.0 mg/kg/injection, schedule: Q01DX001 (ip), vehicle: saline
[2] = dose: 200.0 mg/kg/injection, schedule: Q01DX001 (ip), vehicle: saline
[3] = dose: 400.0 mg/kg/injection, schedule: Q01DX001 (ip), vehicle: saline
[4] = dose: 50.0 mg/kg/injection, schedule: Q01DX009 (ip), vehicle: saline with Tween-80
[5] = dose: 100.0 mg/kg/injection, schedule: Q04DX003 (ip), vehicle: Klucel (hydroxypropylcellulose) (HPC)
[6] = dose: 200.0 mg/kg/injection, schedule: Q04DX003 (ip), vehicle: Klucel (hydroxypropylcellulose) (HPC)
[7] = dose: 100.0 mg/kg/injection, schedule: Q04DX002 (ip), vehicle: Klucel (hydroxypropylcellulose) (HPC)
[8] = dose: 200.0 mg/kg/injection, schedule: Q04DX002 (ip), vehicle: Klucel (hydroxypropylcellulose) (HPC)
[9] = dose: 100.0 mg/kg/injection, schedule: Q01DX009 (ip), vehicle: saline with Tween-80
[10] = dose: 200.0 mg/kg/injection, schedule: Q01DX009 (ip), vehicle: saline with Tween-80
[11] = dose: 400.0 mg/kg/injection, schedule: Q01DX009 (ip), vehicle: saline with Tween-80
[12] = dose: 100.0 mg/kg/injection, schedule: Q04DX003 (ip), vehicle: saline with Tween-80
[13] = dose: 100.0 mg/kg/injection, schedule: Q01DX009 (ip), vehicle: Klucel (hydroxypropylcellulose) (HPC)
[14] = dose: 200.0 mg/kg/injection, schedule: Q01DX009 (ip), vehicle: Klucel (hydroxypropylcellulose) (HPC)
[15] = dose: 400.0 mg/kg/injection, schedule: Q04DX003 (ip), vehicle: Klucel (hydroxypropylcellulose) (HPC)
[16] = dose: 200.0 mg/kg/injection, schedule: Q04DX003 (ip), vehicle: saline with Tween-80
[17] = dose: 400.0 mg/kg/injection, schedule: Q04DX003 (ip), vehicle: saline with Tween-80
[18] = dose: 400.0 mg/kg/injection, schedule: Q01DX009 (ip), vehicle: Klucel (hydroxypropylcellulose) (HPC)
[19] = dose: 100.0 mg/kg/injection, schedule: Q04DX003 (ip), vehicle: saline
[20] = dose: 200.0 mg/kg/injection, schedule: Q04DX003 (ip), vehicle: saline
[21] = dose: 400.0 mg/kg/injection, schedule: Q04DX003 (ip), vehicle: saline

C=CCNC(=O)c1cncc(C(=O)O)c1
T/C [1]: 96 % of control | T/C [2]: 104 % of control | T/C [3]: 98 % of control

NC(=S)N/N=C\c1nccc2c(N)cccc12
T/C (dose: 6.25 mg/kg/injection, schedule: Q01DX009 (ip), vehicle: saline with Tween-80): 122 % of control | T/C [4]: 187 % of control

CC(=O)Nc1ccc(OC(=O)Nc2cccc3ccccc23)cc1
T/C [5]: 89 % of control | T/C [6]: 96 % of control

CC12C(=O)OC(=O)C1C1C=CC2C1 (stereo unspecified)
T/C [7]: 102 % of control | T/C (dose: 100.0 mg/kg/injection, schedule: Q04DX003 (ip), vehicle: other): 98 % of control | T/C [8]: 102 % of control | T/C (dose: 200.0 mg/kg/injection, schedule: Q04DX003 (ip), vehicle: other): 102 % of control

CCOC(=O)C(NC(=O)OCc1ccccc1)(OCc1ccccc1)C(C)C (stereo unspecified)
T/C [9]: 105 % of control | T/C [10]: 98 % of control | T/C [11]: 100 % of control

CN(C)C=Nc1ccc(Cl)c(Cl)c1
T/C (dose: 12.5 mg/kg/injection, schedule: Q01DX009 (ip), vehicle: saline): 90 % of control | T/C (dose: 25.0 mg/kg/injection, schedule: Q01DX009 (ip), vehicle: saline): 90 % of control | T/C (dose: 50.0 mg/kg/injection, schedule: Q01DX009 (ip), vehicle: saline): 90 % of control | T/C [12]: 97 % of control

CCOC(=O)CC1COC(=O)C1C(=O)OCC (stereo unspecified)
T/C (dose: 12.5 mg/kg/injection, schedule: Q01DX009 (ip), vehicle: saline with Tween-80): 105 % of control | T/C (dose: 25.0 mg/kg/injection, schedule: Q01DX009 (ip), vehicle: saline with Tween-80): 105 % of control and 120 % of control | T/C [4]: 95 % of control | T/C [9]: 98 % of control and 122 % of control | T/C [10]: 118 % of control | T/C [11]: 106 % of control

O=C(/C=C(/C(=O)c1ccccc1)N1CC1)c1ccccc1
T/C (dose: 50.0 mg/kg/injection, schedule: Q01DX001 (ip), vehicle: carboxymethylcellulose (CMC)): 113 % of control | T/C (dose: 100.0 mg/kg/injection, schedule: Q01DX001 (ip), vehicle: carboxymethylcellulose (CMC)): 105 % of control | T/C (dose: 200.0 mg/kg/injection, schedule: Q01DX001 (ip), vehicle: carboxymethylcellulose (CMC)): 97 % of control | T/C (dose: 400.0 mg/kg/injection, schedule: Q01DX001 (ip), vehicle: carboxymethylcellulose (CMC)): 103 % of control

CCOC(=O)c1cnc(SC)nc1Nc1ccc(Br)cc1
T/C (dose: 50.0 mg/kg/injection, schedule: Q01DX009 (ip), vehicle: Klucel (hydroxypropylcellulose) (HPC)): 93 % of control | T/C [13]: 92 % of control | T/C [5]: 124 % of control | T/C [14]: 88 % of control | T/C [6]: 124 % of control | T/C [15]: 87 % of control

CC(C)(C)C(=O)C(O)C(C)(C)C (stereo unspecified)
T/C [1]: 95 % of control | T/C [2]: 97 % of control | T/C [3]: 93 % of control

CCC1(c2ccccc2)C(=O)N(CCl)C(=O)N(CCl)C1=O
T/C [9]: 93 % of control | T/C (dose: 100.0 mg/kg/injection, schedule: Q04DX002 (ip), vehicle: saline with Tween-80): 103 % of control | T/C [10]: 87 % of control | T/C (dose: 200.0 mg/kg/injection, schedule: Q04DX002 (ip), vehicle: saline with Tween-80): 92 % of control | T/C [11]: 90 % of control | T/C (dose: 400.0 mg/kg/injection, schedule: Q04DX002 (ip), vehicle: saline with Tween-80): 95 % of control

C/C(=C\c1c[nH]c2ccccc12)[N+](=O)[O-]
T/C [9]: 90 % of control | T/C [12]: 97 % of control | T/C [10]: 100 % of control | T/C [16]: 97 % of control | T/C [11]: 100 % of control | T/C [17]: 90 % of control

O=C(O)C(c1ccccc1)S(=O)(=O)C(C(=O)O)c1ccccc1 (stereo unspecified)
T/C [1]: 95 % of control | T/C [2]: 101 % of control | T/C [3]: 95 % of control

Cc1ccccc1N=Nc1c(O)n(-c2ccc(Br)cc2)c(=S)n(-c2ccccc2)c1=O
T/C (dose: 37.5 mg/kg/injection, schedule: Q01DX001 (ip), vehicle: Klucel (hydroxypropylcellulose) (HPC)): 101 % of control | T/C (dose: 75.0 mg/kg/injection, schedule: Q01DX001 (ip), vehicle: Klucel (hydroxypropylcellulose) (HPC)): 101 % of control | T/C (dose: 150.0 mg/kg/injection, schedule: Q01DX001 (ip), vehicle: Klucel (hydroxypropylcellulose) (HPC)): 101 % of control

CC(C)(COC(=O)c1ccccc1)COC(=O)c1ccccc1
T/C [13]: 116 % of control | T/C [5]: 96 % of control | T/C [14]: 93 % of control | T/C [6]: 107 % of control | T/C [18]: 93 % of control | T/C [15]: 98 % of control

O=C(NCCCC1C2CCC(C2)C1CNC(=O)Nc1cccc(Cl)c1)Nc1cccc(Cl)c1 (stereo unspecified)
T/C [12]: 91 % of control | T/C [16]: 92 % of control | T/C [17]: 87 % of control

CN(C)c1ccc([N+](=O)[O-])c2c1CCC2
T/C (dose: 50.0 mg/kg/injection, schedule: Q01DX001 (ip), vehicle: saline): 111 % of control | T/C [1]: 90 % of control | T/C [2]: 106 % of control | T/C [3]: 106 % of control

ClCc1ccccn1
T/C (dose: 100.0 mg/kg/injection, schedule: Q01DX009 (ip), vehicle: saline): 92 % of control | T/C [19]: 98 % of control | T/C (dose: 200.0 mg/kg/injection, schedule: Q01DX009 (ip), vehicle: saline): 95 % of control | T/C [20]: 101 % of control | T/C (dose: 400.0 mg/kg/injection, schedule: Q01DX009 (ip), vehicle: saline): 89 % of control | T/C [21]: 94 % of control

SC12CC3CC(CC(C3)C1)C2
T/C [7]: 87 % of control | T/C [8]: 94 % of control | T/C (dose: 400.0 mg/kg/injection, schedule: Q04DX002 (ip), vehicle: Klucel (hydroxypropylcellulose) (HPC)): 98 % of control

O=C(O)c1cc(O)c(Br)c(O)c1
T/C (dose: 75.0 mg/kg/injection, schedule: Q01DX009 (ip), vehicle: other): 93 % of control | T/C [19]: 106 % of control | T/C (dose: 150.0 mg/kg/injection, schedule: Q01DX009 (ip), vehicle: other): 96 % of control | T/C [20]: 101 % of control | T/C [21]: 95 % of control

COC(=O)/C=C/c1ccc(Cl)cc1
T/C [13]: 98 % of control | T/C [14]: 96 % of control | T/C [18]: 96 % of control

CCOC(=O)c1cnc2c(cnn2C(C)C)c1NN
T/C [5]: 99 % of control | T/C [6]: 99 % of control | T/C [15]: 96 % of control

O=C(CCCCCCCCC(=O)Nc1ccccc1F)Nc1ccccc1F
T/C [13]: 101 % of control | T/C [14]: 102 % of control | T/C [18]: 101 % of control
